Test results taken from the NIST ThermoML archive (doi:10.1016/j.jct.2017.06.001).
Numbers after ± are expanded uncertainties.

Experiment: xn = mol fraction of the nth substance listed
Settings: 100 kPa, Liquid; for mass density: 293.15 K, Vibrating tube method; for speed of sound: 298.15 K, Frequency=5 MHz, Pulse-echo method

Question: With `OCCCCCO` [1,5-pentanediol] + O as the molecule, how does the mass density (x1 = 0.5003) read?
Answer: 999.3 ± 1.5 kg/m3

Question: What about the mass density (x1 = 0.5362) of the same molecule?
Answer: 998.5 ± 1.5 kg/m3

Question: What about the mass density (x1 = 0.6177) of the same molecule?
Answer: 996.9 ± 1.7 kg/m3

Question: What about the mass density (x1 = 0.6478) of the same molecule?
Answer: 996.3 ± 1.7 kg/m3

Question: And the mass density (x1 = 0.7025)?
Answer: 995.2 ± 1.8 kg/m3

Question: And the mass density (x1 = 0.7504)?
Answer: 994.4 ± 1.9 kg/m3

Question: What about the mass density (x1 = 0.7927) of the same molecule?
Answer: 993.6 ± 2 kg/m3

Question: What about the mass density (x1 = 0.8605) of the same molecule?
Answer: 992.3 ± 2.1 kg/m3

Question: What about the mass density (x1 = 0.9004) of the same molecule?
Answer: 991.5 ± 2.2 kg/m3

Question: And the mass density (x1 = 0.9496)?
Answer: 990.4 ± 2.3 kg/m3

Question: What about the mass density (x1 = 1) of the same molecule?
Answer: 989.3 ± 2.1 kg/m3

Question: What about the speed of sound (x1 = 0.0002) of the same molecule?
Answer: 1497.3 ± 1.1 m/s

Question: What about the speed of sound (x1 = 0.0006) of the same molecule?
Answer: 1498.9 ± 1.1 m/s

Question: And the speed of sound (x1 = 0.0012)?
Answer: 1501.2 ± 1.1 m/s

Question: What about the speed of sound (x1 = 0.0018) of the same molecule?
Answer: 1503.4 ± 1.1 m/s

Question: What about the speed of sound (x1 = 0.0026) of the same molecule?
Answer: 1506.3 ± 1.1 m/s

Question: What about the speed of sound (x1 = 0.004) of the same molecule?
Answer: 1511.1 ± 1.1 m/s

Question: And the speed of sound (x1 = 0.0054)?
Answer: 1515.9 ± 1.1 m/s

Question: And the speed of sound (x1 = 0.0067)?
Answer: 1520.1 ± 1.2 m/s

Question: And the speed of sound (x1 = 0.0083)?
Answer: 1525.4 ± 1.2 m/s

Question: What about the speed of sound (x1 = 0.0097) of the same molecule?
Answer: 1529.9 ± 1.2 m/s

Question: And the speed of sound (x1 = 0.0113)?
Answer: 1534.7 ± 1.2 m/s

Question: And the speed of sound (x1 = 0.0123)?
Answer: 1537.8 ± 1.2 m/s

Question: What about the speed of sound (x1 = 0.0138) of the same molecule?
Answer: 1542.2 ± 1.2 m/s

Question: And the speed of sound (x1 = 0.0153)?
Answer: 1546.5 ± 1.2 m/s

Question: And the speed of sound (x1 = 0.0168)?
Answer: 1550.8 ± 1.2 m/s

Question: And the speed of sound (x1 = 0.0184)?
Answer: 1555.2 ± 1.2 m/s

Question: What about the speed of sound (x1 = 0.0195) of the same molecule?
Answer: 1558 ± 1.2 m/s

Question: And the speed of sound (x1 = 0.0205)?
Answer: 1560.8 ± 1.2 m/s

Question: And the speed of sound (x1 = 0.0221)?
Answer: 1564.7 ± 1.2 m/s

Question: What about the speed of sound (x1 = 0.0243) of the same molecule?
Answer: 1570.1 ± 1.2 m/s

Question: What about the speed of sound (x1 = 0.0264) of the same molecule?
Answer: 1575.3 ± 1.2 m/s

Question: What about the speed of sound (x1 = 0.0287) of the same molecule?
Answer: 1580.3 ± 1.2 m/s

Question: What about the speed of sound (x1 = 0.0308) of the same molecule?
Answer: 1584.9 ± 1.2 m/s

Question: What about the speed of sound (x1 = 0.0326) of the same molecule?
Answer: 1588.7 ± 1.2 m/s

Question: And the speed of sound (x1 = 0.0347)?
Answer: 1593 ± 1.2 m/s

Question: And the speed of sound (x1 = 0.0362)?
Answer: 1596.1 ± 1.2 m/s

Question: And the speed of sound (x1 = 0.0378)?
Answer: 1599.1 ± 1.2 m/s

Question: And the speed of sound (x1 = 0.0396)?
Answer: 1602.6 ± 1.2 m/s

Question: And the speed of sound (x1 = 0.0414)?
Answer: 1605.7 ± 1.2 m/s

Question: And the speed of sound (x1 = 0.0432)?
Answer: 1608.9 ± 1.2 m/s

Question: And the speed of sound (x1 = 0.045)?
Answer: 1612 ± 1.2 m/s

Question: And the speed of sound (x1 = 0.0465)?
Answer: 1614.4 ± 1.2 m/s

Question: And the speed of sound (x1 = 0.0484)?
Answer: 1617.3 ± 1.2 m/s

Question: And the speed of sound (x1 = 0.0503)?
Answer: 1620.2 ± 1.2 m/s

Question: And the speed of sound (x1 = 0.0523)?
Answer: 1623.2 ± 1.2 m/s

Question: And the speed of sound (x1 = 0.0539)?
Answer: 1625.4 ± 1.2 m/s

Question: What about the speed of sound (x1 = 0.0554) of the same molecule?
Answer: 1627.5 ± 1.2 m/s

Question: What about the speed of sound (x1 = 0.057) of the same molecule?
Answer: 1629.7 ± 1.2 m/s

Question: And the speed of sound (x1 = 0.0588)?
Answer: 1631.9 ± 1.2 m/s

Question: What about the speed of sound (x1 = 0.0607) of the same molecule?
Answer: 1634.3 ± 1.2 m/s

Question: And the speed of sound (x1 = 0.0624)?
Answer: 1636.4 ± 1.2 m/s

Question: What about the speed of sound (x1 = 0.0647) of the same molecule?
Answer: 1639 ± 1.2 m/s

Question: And the speed of sound (x1 = 0.0672)?
Answer: 1641.8 ± 1.2 m/s

Question: What about the speed of sound (x1 = 0.0698) of the same molecule?
Answer: 1644.5 ± 1.2 m/s

Question: What about the speed of sound (x1 = 0.0724) of the same molecule?
Answer: 1647.1 ± 1.2 m/s

Question: What about the speed of sound (x1 = 0.0743) of the same molecule?
Answer: 1648.9 ± 1.2 m/s

Question: And the speed of sound (x1 = 0.0774)?
Answer: 1651.7 ± 1.2 m/s

Question: What about the speed of sound (x1 = 0.0814) of the same molecule?
Answer: 1655.1 ± 1.2 m/s

Question: What about the speed of sound (x1 = 0.0847) of the same molecule?
Answer: 1657.7 ± 1.2 m/s

Question: And the speed of sound (x1 = 0.0877)?
Answer: 1659.9 ± 1.2 m/s

Question: What about the speed of sound (x1 = 0.0907) of the same molecule?
Answer: 1661.9 ± 1.2 m/s

Question: What about the speed of sound (x1 = 0.0941) of the same molecule?
Answer: 1664.1 ± 1.2 m/s

Question: What about the speed of sound (x1 = 0.0968) of the same molecule?
Answer: 1665.7 ± 1.2 m/s

Question: And the speed of sound (x1 = 0.0975)?
Answer: 1666.1 ± 1.2 m/s

Question: And the speed of sound (x1 = 0.1007)?
Answer: 1667.9 ± 1.2 m/s

Question: What about the speed of sound (x1 = 0.1013) of the same molecule?
Answer: 1668.2 ± 1.2 m/s

Question: What about the speed of sound (x1 = 0.1045) of the same molecule?
Answer: 1669.8 ± 1.2 m/s

Question: And the speed of sound (x1 = 0.1057)?
Answer: 1670.4 ± 1.2 m/s

Question: What about the speed of sound (x1 = 0.108) of the same molecule?
Answer: 1671.4 ± 1.2 m/s

Question: What about the speed of sound (x1 = 0.1105) of the same molecule?
Answer: 1672.6 ± 1.2 m/s

Question: And the speed of sound (x1 = 0.1112)?
Answer: 1672.8 ± 1.2 m/s

Question: And the speed of sound (x1 = 0.1142)?
Answer: 1674 ± 1.2 m/s

Question: What about the speed of sound (x1 = 0.1158) of the same molecule?
Answer: 1674.7 ± 1.2 m/s

Question: What about the speed of sound (x1 = 0.1173) of the same molecule?
Answer: 1675.2 ± 1.2 m/s

Question: What about the speed of sound (x1 = 0.1201) of the same molecule?
Answer: 1676.2 ± 1.2 m/s

Question: And the speed of sound (x1 = 0.1217)?
Answer: 1676.7 ± 1.2 m/s

Question: What about the speed of sound (x1 = 0.1233) of the same molecule?
Answer: 1677.2 ± 1.2 m/s

Question: What about the speed of sound (x1 = 0.1262) of the same molecule?
Answer: 1678.1 ± 1.2 m/s
